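Five concentrations, 48 hours, 96-well plates. Abbreviation: GI50, concentration required for 50% inhibition of growth.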 Calls of active or inactive are those of the source. Cut-off read from the data, not from the text of the source: active = GI50 up to about 1.1 µM and inactive = higher.

The source of these data is ChEMBL document CHEMBL1201862, “PubChem BioAssay data set” (2004).

Among the test systems are LOX IMVI; NCI-H23; U-251; HOP-92; SK-MEL-5; SK-MEL-2; OVCAR-4; NCI-H460; UO-31; HOP-62; RXF 393; MDA-MB-231; UACC-62; TK-10; SF-295; SNB-19; MCF7; COLO 205; CAKI-1; SR.
Holding throughout (test): NCI-60 cell line screen, 48 h

Take `CCOC(=S)SCC(=O)O`: the GI50 in the experiment on LOX IMVI, in the experiment with NCI-H23, in the experiment with U-251, with HOP-92, with SK-MEL-5 and with SK-MEL-2 was > 100 µM (inactive) in each case. Further, the GI50 with OVCAR-4, in the experiment on NCI-H460, with UO-31, in the experiment on HOP-62, with RXF 393 and in the experiment with MDA-MB-231 was > 100 µM (inactive) each time. Further, the GI50 with UACC-62, with TK-10, in the experiment with SF-295, in the experiment with SNB-19, in the experiment with MCF7 and with COLO 205 was > 100 µM (inactive) each time. The GI50 in the experiment on CAKI-1 and in the experiment with SR was > 100 µM (inactive) in each case.

As to `O=C1CCCC2=C(N1)C(=O)C=CC2=O`, the GI50 in the experiment on LOX IMVI is > 53.5 µM (inactive); with NCI-H23 it was 39.6 µM (inactive); in the experiment with U-251 it was 43.8 µM (inactive); with HOP-92, 22.2 µM (inactive); in the experiment on SK-MEL-5, 42.1 µM (inactive); with SK-MEL-2, 44 µM (inactive). Further, the GI50 in the experiment with OVCAR-4 was 45.7 µM (inactive); with NCI-H460, 45.3 µM (inactive); with UO-31, 43.7 µM (inactive); in the experiment with HOP-62, 44.4 µM (inactive); in the experiment with RXF 393, 45 µM (inactive); with MDA-MB-231 it was 16.7 µM (inactive). Also, the GI50 in the experiment with UACC-62 is 42.2 µM (inactive); in the experiment with TK-10 it was 42.4 µM (inactive); in the experiment with SF-295, 41.7 µM (inactive); in the experiment with SNB-19, 44.1 µM (inactive); in the experiment on MCF7, 18.8 µM (inactive); in the experiment on COLO 205, 23.8 µM (inactive). In addition, the GI50 with CAKI-1 was 32.5 µM (inactive); in the experiment with SR, 24.4 µM (inactive).

Consider `C=CCSSCC=C`, for which the GI50 is 9.73 µM (inactive) in the experiment on LOX IMVI; > 58.3 µM (inactive) in the experiment with NCI-H23; 61.4 µM (inactive) with U-251; 28.5 µM (inactive) in the experiment on HOP-92; 35.4 µM (inactive) with SK-MEL-5; > 71.1 µM (inactive) with SK-MEL-2. For the same compound, the GI50 was > 76.6 µM (inactive) with OVCAR-4; 32.4 µM (inactive) with NCI-H460; 32.9 µM (inactive) with UO-31; > 71.9 µM (inactive) in the experiment with HOP-62; 32.3 µM (inactive) with RXF 393; 16.8 µM (inactive) with MDA-MB-231. The GI50 is 44.3 µM (inactive) in the experiment with UACC-62; > 100 µM (inactive) in the experiment with TK-10; 55.5 µM (inactive) in the experiment with SF-295; > 100 µM (inactive) in the experiment on SNB-19; 30.3 µM (inactive) in the experiment with MCF7; 41.6 µM (inactive) with COLO 205. Besides, the GI50 is 44.8 µM (inactive) in the experiment with CAKI-1 and 4.09 µM (inactive) with SR.

In the case of `O=C(N(C1=CCCC1)N(c1ccccc1)c1ccccc1)C(F)(F)F`, the GI50 is 15.8 µM (inactive) in the experiment with LOX IMVI; 30.4 µM (inactive) in the experiment with NCI-H23; 19.8 µM (inactive) in the experiment with U-251; 10.5 µM (inactive) in the experiment on HOP-92; 16.3 µM (inactive) in the experiment on SK-MEL-5; 17.1 µM (inactive) in the experiment with SK-MEL-2. Moreover, the GI50 is 25.4 µM (inactive) in the experiment with OVCAR-4; 17.5 µM (inactive) in the experiment on NCI-H460; 31.6 µM (inactive) in the experiment with UO-31; 25.5 µM (inactive) with HOP-62; 17 µM (inactive) in the experiment on RXF 393; 16.9 µM (inactive) with MDA-MB-231. Also, the GI50 in the experiment on UACC-62 is 25.8 µM (inactive); in the experiment with TK-10, 39.9 µM (inactive); in the experiment with SF-295, 22.6 µM (inactive); in the experiment with SNB-19, 30 µM (inactive); in the experiment on MCF7 it was 19.7 µM (inactive); in the experiment with COLO 205, 18.6 µM (inactive). The GI50 in the experiment on CAKI-1 is 20.2 µM (inactive); in the experiment on SR, 31 µM (inactive).

In the case of `CC(=O)C1=C(c2ccccc2)N(C2OC(CO)C(O)C(O)C2O)C(S)=C(C#N)C1c1ccc(Cl)cc1` (configuration not stated), the GI50 in the experiment on LOX IMVI is 18.5 µM (inactive); in the experiment on NCI-H23, 36 µM (inactive); with U-251, 17.9 µM (inactive); with HOP-92, 19.7 µM (inactive); with SK-MEL-5 it was 19.6 µM (inactive); in the experiment with SK-MEL-2, 12.9 µM (inactive). Besides, the GI50 in the experiment with OVCAR-4 is 29.6 µM (inactive); in the experiment on NCI-H460, 21.9 µM (inactive); with UO-31, 28.8 µM (inactive); in the experiment on HOP-62 it was 30.2 µM (inactive); in the experiment on RXF 393 it was 28.6 µM (inactive); in the experiment with MDA-MB-231 it was 28.1 µM (inactive). In addition, the GI50 in the experiment with UACC-62 was 16.4 µM (inactive); in the experiment on TK-10, 52.7 µM (inactive); with SF-295, 35.9 µM (inactive); in the experiment with SNB-19, 34.9 µM (inactive); in the experiment on MCF7, 20.1 µM (inactive); with COLO 205, 24.7 µM (inactive). For the same compound, the figures for the GI50 in the experiment on CAKI-1 and in the experiment with SR were 29 µM (inactive) and 29.1 µM (inactive), respectively.

Regarding `CN(CCCNC(=O)c1nn(-c2ccc(Cl)cc2Cl)c2c1ccc1ccccc12)CCCNC(=O)c1nn(-c2ccc(Cl)cc2Cl)c2c1ccc1ccccc12`, the GI50 is 1.69 µM (inactive) in the experiment with LOX IMVI; 1.81 µM (inactive) in the experiment on NCI-H23; 1.69 µM (inactive) with U-251; 1.84 µM (inactive) with HOP-92; 1.88 µM (inactive) with SK-MEL-5; 1.65 µM (inactive) in the experiment on SK-MEL-2. Moreover, the GI50 with OVCAR-4 was 1.68 µM (inactive); in the experiment with NCI-H460, 1.78 µM (inactive); with HOP-62 it was 1.77 µM (inactive); with RXF 393, 1.66 µM (inactive); in the experiment with MDA-MB-231, 1.75 µM (inactive); in the experiment with UACC-62, 1.65 µM (inactive). Moreover, the GI50 with TK-10 was 1.89 µM (inactive); in the experiment on SF-295, 1.67 µM (inactive); in the experiment on SNB-19 it was 1.54 µM (inactive); in the experiment with MCF7, 1.56 µM (inactive); with COLO 205 it was 1.91 µM (inactive); in the experiment with CAKI-1, 1.58 µM (inactive). Also, the GI50 in the experiment on SR is 0.278 µM (active).

Regarding `CCOC(=O)Cc1ccc(Nc2nc3cc(F)c(F)cc3nc2C(=O)OCC)cc1`, the GI50 is 28.1 µM (inactive) in the experiment with LOX IMVI; 26 µM (inactive) with NCI-H23; 28.9 µM (inactive) with U-251; 13.4 µM (inactive) in the experiment with HOP-92; 34.5 µM (inactive) in the experiment with SK-MEL-5; 22.9 µM (inactive) in the experiment on SK-MEL-2. In addition, the GI50 in the experiment with OVCAR-4 was 57 µM (inactive); in the experiment on NCI-H460 it was 69.5 µM (inactive); in the experiment with UO-31, 1.52 µM (inactive); with HOP-62, > 100 µM (inactive); with RXF 393, 33.9 µM (inactive); in the experiment with MDA-MB-231, 2.34 µM (inactive). Also, the GI50 is 39.2 µM (inactive) with UACC-62; > 100 µM (inactive) in the experiment on TK-10; 73.1 µM (inactive) in the experiment with SF-295; 48.2 µM (inactive) in the experiment on SNB-19; 37.6 µM (inactive) with MCF7; 37.2 µM (inactive) with COLO 205. The GI50 in the experiment on CAKI-1 was 19.1 µM (inactive); with SR, 26.5 µM (inactive).

Consider `COc1cc2c(cc1OC)C(=O)/C(=C/c1ccc([N+](=O)[O-])cc1)CC2`, for which the GI50 with LOX IMVI, in the experiment with NCI-H23, in the experiment on U-251, in the experiment with HOP-92, in the experiment with SK-MEL-5 and in the experiment on SK-MEL-2 was > 10 µM (inactive) throughout. The GI50 in the experiment with OVCAR-4, with NCI-H460, with HOP-62, with RXF 393, in the experiment with MDA-MB-231 and in the experiment on UACC-62 was > 10 µM (inactive) in each case. For the same compound, the GI50 in the experiment on TK-10, in the experiment with SF-295, in the experiment with SNB-19, with MCF7, with COLO 205 and in the experiment with CAKI-1 was > 10 µM (inactive) in each case. Also, the GI50 in the experiment with SR is > 10 µM (inactive).

Consider `O=C1C=Cc2c(Cl)sc(Cl)c21`, for which the GI50 is 0.372 µM (active) in the experiment on LOX IMVI; 2.22 µM (inactive) in the experiment on NCI-H23; 2.99 µM (inactive) in the experiment with U-251; 1.5 µM (inactive) with HOP-92; 2.11 µM (inactive) with SK-MEL-5; 2.2 µM (inactive) with SK-MEL-2. The GI50 is 6.01 µM (inactive) in the experiment with OVCAR-4; 9.31 µM (inactive) in the experiment with NCI-H460; 1.6 µM (inactive) with UO-31; 1.74 µM (inactive) in the experiment on HOP-62; 2.09 µM (inactive) in the experiment with RXF 393; 2.86 µM (inactive) in the experiment on MDA-MB-231. Moreover, the GI50 in the experiment on UACC-62 was 3.01 µM (inactive); with TK-10 it was 2.24 µM (inactive); in the experiment with SF-295, 8.59 µM (inactive); in the experiment with SNB-19, 4.63 µM (inactive); with MCF7, 1.05 µM (active); with COLO 205 it was 1.45 µM (inactive). Besides, the values for the GI50 in the experiment on CAKI-1 and with SR were 2.15 µM (inactive) and 0.347 µM (active), respectively.

On to `Cc1nc2sc3ccccc3n2c(=O)c1/N=N/c1ccc(Cl)cc1`, for which the GI50 in the experiment on LOX IMVI, in the experiment on NCI-H23, with U-251, in the experiment with HOP-92, in the experiment on SK-MEL-5 and in the experiment on SK-MEL-2 was > 100 µM (inactive) throughout. The GI50 in the experiment with OVCAR-4 is > 100 µM (inactive); in the experiment with NCI-H460 it was > 100 µM (inactive); in the experiment with HOP-62, > 100 µM (inactive); with RXF 393, > 100 µM (inactive); in the experiment on MDA-MB-231, 83.9 µM (inactive); with UACC-62, > 100 µM (inactive). Besides, the GI50 in the experiment with TK-10, with SF-295, in the experiment on SNB-19, in the experiment with MCF7, in the experiment with COLO 205 and in the experiment on CAKI-1 was > 100 µM (inactive) throughout. Besides, the GI50 in the experiment with SR was > 100 µM (inactive).
